Experiments:
Assay type in all cases: cell-based
[1] = test system: bacteria isolated from paper mill white water; assay: Biocidal efficacy of seven biocides in artificial white water; details: artificial white water pH 8.1, 37 C
Procedure: Sterile artificial White Water (111 mg of CaCl2, 60 mg of MgSO4, 168 mg of NaHCO3, 140 mg of K2HPO4, 480 mg of NH4Cl, 1.04 mg of FeCl3.6H2O, 1.48 mg of Na2EDTA, 3000 mg of Dextrose, 10 mg of Yeast Extract, in 1 L water, pH 8.1) is contaminated with field isolated bacteria at a concentration of approximately 10^7 CFU/mL. The aliquots of this contaminated water are then treated with eight dosage levels of DBMAL and six other commonly used biocides in paper mill white water application. The same aliquots of the contaminated water without biocide are used as controls. After incubating at 37° C. for 4 hours, the valid bacteria in the aliquots are enumerated using a serial dilution method and the bacterial log10 reduction is calculated by comparing the valid bacteria number of biocide treated water aliquots to that of controls. Table 4 compares the efficacy of the seven biocides, expressed by bacterial log10 reduction.

[2] = test system: bacteria in sulfite-containing white water; assay: Biocidal efficacy in presence of sulfite in contaminated paper mill white water (1-96 hours); details: for Bacterial log10 reduction at time point after biocide addition: about 80 ppm sulfite; for Duration of effectiveness (>3 log10 killing) compared with DBNPA: sulfite-containing white water
Procedure: The same contaminated whitewater samples without biocide are used as controls. The mixtures are incubated at 37° C. with shaking (100 RPM) for 96 hrs. At 1 hr, 3 hrs, 24 hrs, 48 hrs, 72 hrs and 96 hrs time points after the biocide addition, the valid bacteria in the mixtures are enumerated using a serial dilution method and the bacterial log10 reduction is calculated by comparing the valid bacteria number of biocide treated water aliquots to that of controls. Starting from 24 hrs after the sampling, the mixtures are reinoculated with field isolated bacteria at about 10^5 CFU/mL and are supplied with additional sulfite to keep an 80 ppm sulfite concentration.

field isolated bacteria = assay: Resistance of biocide to sulfite deactivation: biocide pretreated with sulfite in paper mill white water before efficacy testing; details: for Decrease of efficacy due to sulfite pretreatment (bacterial log10 reduction): 80 ppm sulfite, 4 hrs; for Bacterial log10 reduction after treatment of biocide for 4 hrs: white water about pH 7.5, 37 C
Procedure: 50 ppm to 80 ppm sulfite is representative of a sulfite level for pulp and paper applications. The same white water sample without sulfite is used as none sulfite comparison and the same whitewater samples containing no biocide and with or without sulfite are used as controls. The water samples are incubated at 37° C. for 5 min and then are inoculated with field isolated bacteria at a concentration of approximately 10^7 CFU/mL. The mixtures are then incubated at 37° C. for 4 hours. After that, the viable bacteria in the mixtures is enumerated using a serial dilution method.

[3] = 25 ppm active, 1 hr, pH 7.6, 37 C
[4] = 25 ppm active, 3 hr, pH 7.6, 37 C
[5] = 25 ppm active, 24 hrs, pH 7.6, 37 C
[6] = 25 ppm active, 48 hrs, reinoculated from 24 hrs
[7] = 25 ppm active, 72 hrs, reinoculated from 24 hrs
[8] = 25 ppm active, 96 hrs, reinoculated from 24 hrs
[9] = 50 ppm active, 1 hr, pH 7.6, 37 C
[10] = 50 ppm active, 3 hr, pH 7.6, 37 C
[11] = 50 ppm active, 24 hrs, pH 7.6, 37 C
[12] = 50 ppm active, 48 hrs, reinoculated from 24 hrs
[13] = 50 ppm active, 72 hrs, reinoculated from 24 hrs
[14] = 50 ppm active, 96 hrs, reinoculated from 24 hrs
[15] = 80 ppm sulfite pretreated, 29.7 ppm biocide
[16] = 80 ppm sulfite pretreated, 44.5 ppm biocide
[17] = 80 ppm sulfite pretreated, 66.7 ppm biocide
[18] = 80 ppm sulfite pretreated, 100.0 ppm biocide
[19] = non-sulfite treated, 29.7 ppm biocide
[20] = non-sulfite treated, 44.5 ppm biocide
[21] = non-sulfite treated, 66.7 ppm biocide
[22] = non-sulfite treated, 100.0 ppm biocide

Row | SMILES | Minimum dosage (ppm, active) required for at least 3 log10 reduction in numbers of bacteria in 4 hours ([1]; approximately 10^7 CFU/mL) [ppm] | Bacterial log10 reduction at time point after biocide addition [2, 3] | Bacterial log10 reduction at time point after biocide addition [2, 4] | Bacterial log10 reduction at time point after biocide addition [2, 5] [log10] | Bacterial log10 reduction at time point after biocide addition [2, 6] [log10] | Bacterial log10 reduction at time point after biocide addition [2, 7] [log10] | Bacterial log10 reduction at time point after biocide addition [2, 8] [log10] | Bacterial log10 reduction at time point after biocide addition [2, 9] | Bacterial log10 reduction at time point after biocide addition [2, 10] | Bacterial log10 reduction at time point after biocide addition [2, 11] | Bacterial log10 reduction at time point after biocide addition [2, 12] [log10] | Bacterial log10 reduction at time point after biocide addition [2, 13] [log10] | Bacterial log10 reduction at time point after biocide addition [2, 14] [log10] | Decrease of efficacy due to sulfite pretreatment (bacterial log10 reduction) (field isolated bacteria; 29.7 ppm biocide) | Decrease of efficacy due to sulfite pretreatment (bacterial log10 reduction) (field isolated bacteria; 44.5 ppm biocide) | Decrease of efficacy due to sulfite pretreatment (bacterial log10 reduction) (field isolated bacteria; 66.7 ppm biocide) | Bacterial log10 reduction after treatment of biocide for 4 hrs (field isolated bacteria; [15]) [log10] | Bacterial log10 reduction after treatment of biocide for 4 hrs (field isolated bacteria; [16]) [log10] | Bacterial log10 reduction after treatment of biocide for 4 hrs (field isolated bacteria; [17]) [log10] | Bacterial log10 reduction after treatment of biocide for 4 hrs (field isolated bacteria; [18]) [log10] | further results
1 | NCl [monochloramine] | – | – | – | – | – | – | – | – | – | – | – | – | – | – | – | – | – | – | – | – | Minimum dosage (ppm, active) required for at least 3 log10 reduction in numbers of bacteria in 4 hours ([1]; active expressed as chlorine): 8.00 (chlorine) ppm
2 | CC1(C)C(=O)N(Cl)C(=O)N1Br [BCDMH, 1-Bromo-3-chloro-5,5-dimethylhydantoin] | – | – | – | – | – | – | – | – | – | – | – | – | – | – | – | – | – | – | – | – | Minimum dosage (ppm, active) required for at least 3 log10 reduction in numbers of bacteria in 4 hours ([1]; active ppm measured by available bromine & chlorine (chlorine/bromine)): 71.74 (chlorine/bromine) ppm
3 | NC(=O)C(Br)(Br)C(N)=O [DBMAL, 2,2-Dibromomalonamide] | 81.92 | 2.5 log10 | 3.2 log10 | 4.2 | 3.7 | 1.5 | 1.2 | >=4.0 log10 | 3.8 log10 | >=4.3 log10 | 4.3 | 4.2 | 3.8 | 0.7 log10 | 3.3 log10 | 2.7 log10 | 1.0 | 1.0 | 2.3 | 2.3 | Duration of effectiveness (>3 log10 killing) compared with DBNPA ([2]; same active concentration of 25 ppm): one more day; Duration of effectiveness (>3 log10 killing) compared with DBNPA ([2]; same active concentration of 50 ppm): two more days; Decrease of efficacy due to sulfite pretreatment (bacterial log10 reduction) (field isolated bacteria; 100.0 ppm biocide): 2.4 log10; Bacterial log10 reduction after treatment of biocide for 4 hrs (field isolated bacteria; [19]): 1.7 log10; Bacterial log10 reduction after treatment of biocide for 4 hrs (field isolated bacteria; [20]): 4.3 log10; Bacterial log10 reduction after treatment of biocide for 4 hrs (field isolated bacteria; [21]): 5.0 log10; Bacterial log10 reduction after treatment of biocide for 4 hrs (field isolated bacteria; [22]): 4.7 log10; Decrease in efficacy when premixed with 80 ppm sulfite, compared with DBNPA (field isolated bacteria; premixed with 80 ppm sulfite): much smaller
4 | O=CCCCC=O [Glutaraldehyde] | 163.84 | – | – | – | – | – | – | – | – | – | – | – | – | – | – | – | – | – | – | – | –
5 | N#CC(Br)(Br)C(N)=O [DBNPA, 2,2-Dibromo-3-nitrilopropionamide] | 128.00 | >=4.0 log10 | >=4.0 log10 | 3.3 | 1.5 | 0.3 | 0 | >=4.0 log10 | >=4.0 log10 | >=4.3 log10 | 4.5 | 1.0 | 0.7 | >=3.4 log10 | >=4.4 log10 | >=4.4 log10 | 1.3 | 1.3 | 1.3 | 2.3 | Decrease of efficacy due to sulfite pretreatment (bacterial log10 reduction) (field isolated bacteria; 100.0 ppm biocide): >=3.4 log10; Bacterial log10 reduction after treatment of biocide for 4 hrs (field isolated bacteria; [19]): 4.7 log10; Bacterial log10 reduction after treatment of biocide for 4 hrs (field isolated bacteria; [20]): >=5.7 log10; Bacterial log10 reduction after treatment of biocide for 4 hrs (field isolated bacteria; [21]): >=5.7 log10; Bacterial log10 reduction after treatment of biocide for 4 hrs (field isolated bacteria; [22]): >=5.7 log10
